Assay results from patent US20240391931A1 (Bristol-Myers Squibb Company, priority 2021, published 2024).

Key:
HER2 WT = biological target: T1, HER2 WT (Homo sapiens, UniProt P04626); assay: Enzymatic assay HER2 WT (method a); format: biochemical; conditions: [HER2 WT]=12.5 nM, [ATP]=25 μM, [Peptide 22]=1 μM
T1 construct: purchased ProQinase, Freiburg, Germany ERBB2 0108-0000-1
Procedure, shortened: (§1)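 Initial rates over 0–3600 s, read as substrate-to-product conversion by capillary electrophoresis, were converted to percent inhibition and fitted with a variable-slope curve to give IC50. Conditions: EGFR WT 2 nM with 1 mM ATP; HER2 YVMA 5 nM or HER2 WT 12.5 nM, each with 25 μM ATP. All used 1 μM Peptide 22 in pH 7.5 HEPES/Mn/Mg buffer.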

EGFR = EGFR (Homo sapiens, UniProt P00533); assay: EGFR signaling (pEGFR Tyr1068/total EGFR MSD) in A431 cells; format: cell-based; parameters: endogenous in cells; host or cells: A431, N87; conditions: for EC50: A431 cells, read-out: A431 pEGFR EC50; for Selectivity A431 EC50/BT474 EC50: ratio A431 pEGFR EC50 to BT474 pHER2 EC50; for Selectivity A431 EC50/HEKYVMA EC50: ratio A431 pEGFR EC50 to HEK YVMA pHER2 EC50
Procedure, shortened: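 EC50 was fitted with variable Hill slope from MSD pTyr1068/total EGFR ratios, expressed as % DMSO control. A431 cells were starved overnight, then exposed 1.5 h to eight concentrations from 10 to 0.005 μM in 1% FBS before a 10-min 100 ng/mL EGF pulse.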

HER2YVMA = HER2YVMA (Homo sapiens, UniProt P04626, INS775YVMA); assay: Enzymatic assay HER2YVMA (method b); format: biochemical; parameters: purchased Viva biotech, Shanghai, China custom purification; conditions: [HER2YVMA]=5 nM, [ATP]=25 μM, [Peptide 22]=1 μM
Procedure, shortened: as §1

T1 sequence (P04626 23-1255): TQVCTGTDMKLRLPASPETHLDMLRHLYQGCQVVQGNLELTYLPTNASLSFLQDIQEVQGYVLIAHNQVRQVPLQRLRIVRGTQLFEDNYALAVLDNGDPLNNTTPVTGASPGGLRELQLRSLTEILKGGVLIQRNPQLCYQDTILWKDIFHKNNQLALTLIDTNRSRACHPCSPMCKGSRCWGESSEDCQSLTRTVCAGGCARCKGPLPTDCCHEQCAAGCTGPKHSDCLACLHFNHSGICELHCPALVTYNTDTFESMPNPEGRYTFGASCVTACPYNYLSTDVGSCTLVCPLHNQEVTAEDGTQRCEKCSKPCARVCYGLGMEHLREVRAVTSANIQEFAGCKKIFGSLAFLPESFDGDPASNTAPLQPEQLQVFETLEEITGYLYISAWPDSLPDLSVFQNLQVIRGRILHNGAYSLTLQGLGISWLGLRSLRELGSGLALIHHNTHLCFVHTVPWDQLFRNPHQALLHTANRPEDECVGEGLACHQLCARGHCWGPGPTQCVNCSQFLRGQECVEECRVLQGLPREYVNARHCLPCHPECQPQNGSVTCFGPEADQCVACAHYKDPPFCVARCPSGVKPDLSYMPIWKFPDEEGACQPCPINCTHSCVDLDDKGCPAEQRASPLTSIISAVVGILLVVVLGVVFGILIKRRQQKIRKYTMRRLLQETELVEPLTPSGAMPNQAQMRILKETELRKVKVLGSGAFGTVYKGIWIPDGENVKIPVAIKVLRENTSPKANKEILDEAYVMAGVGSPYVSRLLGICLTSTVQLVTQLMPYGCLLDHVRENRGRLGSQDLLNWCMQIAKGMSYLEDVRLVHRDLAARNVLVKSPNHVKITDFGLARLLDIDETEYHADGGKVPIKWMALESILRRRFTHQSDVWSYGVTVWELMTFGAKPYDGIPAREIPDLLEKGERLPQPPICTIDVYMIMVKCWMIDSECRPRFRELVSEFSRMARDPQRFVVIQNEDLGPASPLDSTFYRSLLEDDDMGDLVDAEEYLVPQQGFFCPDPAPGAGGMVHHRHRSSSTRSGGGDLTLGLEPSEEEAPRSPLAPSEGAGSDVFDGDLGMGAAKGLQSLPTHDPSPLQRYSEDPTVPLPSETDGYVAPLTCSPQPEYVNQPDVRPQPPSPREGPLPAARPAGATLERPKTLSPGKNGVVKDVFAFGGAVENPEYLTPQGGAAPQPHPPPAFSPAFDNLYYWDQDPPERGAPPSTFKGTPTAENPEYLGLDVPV
Sequence of EGFR (P00533 25-1210): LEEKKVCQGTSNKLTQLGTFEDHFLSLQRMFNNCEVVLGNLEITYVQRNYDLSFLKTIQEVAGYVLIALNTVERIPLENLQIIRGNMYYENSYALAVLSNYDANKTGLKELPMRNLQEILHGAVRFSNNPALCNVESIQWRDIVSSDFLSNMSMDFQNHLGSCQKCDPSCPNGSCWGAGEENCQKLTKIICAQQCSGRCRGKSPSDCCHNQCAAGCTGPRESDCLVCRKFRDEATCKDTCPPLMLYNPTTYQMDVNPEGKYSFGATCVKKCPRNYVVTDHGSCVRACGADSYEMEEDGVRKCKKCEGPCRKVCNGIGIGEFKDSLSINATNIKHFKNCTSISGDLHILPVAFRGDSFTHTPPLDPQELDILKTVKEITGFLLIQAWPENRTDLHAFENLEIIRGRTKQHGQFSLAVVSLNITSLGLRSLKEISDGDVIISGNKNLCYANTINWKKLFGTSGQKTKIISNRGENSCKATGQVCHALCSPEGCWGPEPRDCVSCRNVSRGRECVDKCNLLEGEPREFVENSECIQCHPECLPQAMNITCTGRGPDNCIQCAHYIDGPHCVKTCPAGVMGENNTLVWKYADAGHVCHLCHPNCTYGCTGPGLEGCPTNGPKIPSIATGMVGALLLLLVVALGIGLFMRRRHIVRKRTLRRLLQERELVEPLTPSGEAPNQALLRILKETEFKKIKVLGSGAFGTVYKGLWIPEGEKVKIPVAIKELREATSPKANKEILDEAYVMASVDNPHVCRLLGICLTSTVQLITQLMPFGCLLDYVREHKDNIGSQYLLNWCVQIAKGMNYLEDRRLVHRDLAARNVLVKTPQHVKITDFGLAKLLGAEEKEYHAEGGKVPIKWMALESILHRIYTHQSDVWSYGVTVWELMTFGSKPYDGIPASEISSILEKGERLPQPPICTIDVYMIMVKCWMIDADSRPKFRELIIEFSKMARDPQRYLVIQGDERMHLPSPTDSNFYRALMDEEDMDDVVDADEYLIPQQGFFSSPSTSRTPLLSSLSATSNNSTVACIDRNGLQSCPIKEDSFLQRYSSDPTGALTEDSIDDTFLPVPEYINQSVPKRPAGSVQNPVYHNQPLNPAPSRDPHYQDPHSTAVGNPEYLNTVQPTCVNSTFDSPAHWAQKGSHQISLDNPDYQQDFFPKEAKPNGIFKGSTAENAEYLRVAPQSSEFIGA
Sequence of HER2YVMA (P04626 with tags, fused parts or gaps INS775YVMA): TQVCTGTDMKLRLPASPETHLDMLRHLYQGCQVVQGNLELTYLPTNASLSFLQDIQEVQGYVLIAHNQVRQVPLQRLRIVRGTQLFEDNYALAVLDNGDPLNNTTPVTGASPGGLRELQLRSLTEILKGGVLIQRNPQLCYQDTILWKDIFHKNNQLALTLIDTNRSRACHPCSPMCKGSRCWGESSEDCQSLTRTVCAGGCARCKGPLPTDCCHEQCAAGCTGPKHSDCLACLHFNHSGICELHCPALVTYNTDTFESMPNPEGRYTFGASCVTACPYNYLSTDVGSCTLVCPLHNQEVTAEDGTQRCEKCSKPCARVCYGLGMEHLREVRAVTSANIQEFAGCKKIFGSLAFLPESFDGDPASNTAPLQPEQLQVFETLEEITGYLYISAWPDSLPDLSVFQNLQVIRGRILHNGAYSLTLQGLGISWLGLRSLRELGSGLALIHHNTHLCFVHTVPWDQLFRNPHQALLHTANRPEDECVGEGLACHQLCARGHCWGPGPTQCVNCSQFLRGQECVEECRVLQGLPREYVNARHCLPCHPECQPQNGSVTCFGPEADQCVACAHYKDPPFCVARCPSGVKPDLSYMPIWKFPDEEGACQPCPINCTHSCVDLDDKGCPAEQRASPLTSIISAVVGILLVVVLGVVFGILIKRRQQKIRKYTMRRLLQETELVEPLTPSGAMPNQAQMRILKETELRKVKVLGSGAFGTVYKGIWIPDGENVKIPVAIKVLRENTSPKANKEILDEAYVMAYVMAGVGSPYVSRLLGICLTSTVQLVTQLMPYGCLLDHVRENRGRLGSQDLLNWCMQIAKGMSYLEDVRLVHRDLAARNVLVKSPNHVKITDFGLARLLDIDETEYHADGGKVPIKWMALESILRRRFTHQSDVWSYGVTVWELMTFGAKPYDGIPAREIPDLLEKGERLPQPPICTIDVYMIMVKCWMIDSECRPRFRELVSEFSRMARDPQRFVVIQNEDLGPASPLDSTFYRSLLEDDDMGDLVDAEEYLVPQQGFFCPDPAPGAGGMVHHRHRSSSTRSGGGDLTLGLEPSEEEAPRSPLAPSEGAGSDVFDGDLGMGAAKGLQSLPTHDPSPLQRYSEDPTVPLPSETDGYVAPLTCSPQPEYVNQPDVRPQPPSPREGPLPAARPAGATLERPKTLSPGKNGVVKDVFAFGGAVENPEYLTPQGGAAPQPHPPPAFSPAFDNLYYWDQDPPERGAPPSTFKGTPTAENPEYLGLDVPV

| SMILES | IC50 (HER2 WT) | EC50 (EGFR) | Selectivity A431 EC50/BT474 EC50 (EGFR) | Selectivity A431 EC50/HEKYVMA EC50 (EGFR) | IC50 (HER2YVMA) |
| --- | --- | --- | --- | --- | --- |
| Cc1cc(Nc2ncnc3sc4c(c23)CCN(C(=O)/C=C/CN2CC(C)OC(C)C2C)C4)ccc1Oc1ccc2ncnn2c1 (centres unmarked) [Compound 83] | 0.1 to 1 µM | 1 to 10 µM | A (A: ≥100) | B (B: ≥ 20 and < 100) | 0.1 to 1 µM |
| Cc1cc(Nc2ncnc3sc4c(c23)CCN(C(=O)/C=C/CN2CC(C)(C)OC(C)(C)C2)C4)ccc1Oc1ccc2ncnn2c1 [Compound 84] | 0.1 to 1 µM | > 10 µM | A (A: ≥100) | B (B: ≥ 20 and < 100) | 0.1 to 1 µM |
| O=C(/C=C/CN1CC2CC(C2)C1)N1CCc2c(sc3ncnc(Nc4ccc(Oc5ccc6ncnn6c5)c(Cl)c4)c23)C1 [Compound 85] | < 0.1 µM | 0.1 to 1 µM | C (C: ≥ 10 and < 20) | C (C: ≥ 10 and < 20) | < 0.1 µM |
| C=C(CN1CCc2c(sc3ncnc(Nc4ccc(Oc5ccc(C)nc5)c(C)c4)c23)C1)C(=O)OCC [Compound 86, Ethyl 2-((4-((3-methyl-4-((6-methylpyridin-3-yl)oxy)phenyl)amino)-5,8-dihydropyrido[4′,3′:4,5]thieno[2,3-d]pyrimidin-7(6H)-yl)methyl)acrylate] | 0.1 to 1 µM | > 10 µM | B (B: ≥ 20 and < 100) | A (A: ≥100) | 1 to 10 µM |
| Cc1ccc(Oc2ccc(Nc3ncnc4sc5c(c34)CN(C(=O)/C=C/CN(C)C)C5)cc2C)cn1 [Compound 99, (E)-4-(dimethylamino)-1-(4-((3-methyl-4-((6-methylpyridin-3-yl)oxy)phenyl)amino)-5,7-dihydro-6H-pyrrolo[3′,4′:4,5]thieno[2,3-d]pyrimidin-6-yl)but-2-en-1-one] | 0.1 to 1 µM | 0.1 to 1 µM | B (B: ≥ 20 and < 100) | B (B: ≥ 20 and < 100) | < 0.1 µM |
| Cc1ccc(Oc2ccc(Nc3ncnc4sc5c(c34)CCN(C(=O)/C=C/CN(C)C)CC5)cc2C)cn1 [Compound 100, (E)-4-(dimethylamino)-1-(4-((3-methyl-4-((6-methylpyridin-3-yl)oxy)phenyl)amino)-8,9-dihydro-5H-pyrimido[5′,4′:4,5]thieno[2,3-d]azepin-7(6H)-yl)but-2-en-1-one] | 0.1 to 1 µM | 0.1 to 1 µM | B (B: ≥ 20 and < 100) | C (C: ≥ 10 and < 20) | 0.1 to 1 µM |
| Cc1ccc(Oc2ccc(Nc3ncnc4sc5c(c34)CCCN(C(=O)/C=C/CN(C)C)C5)cc2C)cn1 [Compound 101, (E)-4-(Dimethylamino)-1-(4-((3-methyl-4-((6-methylpyridin-3-yl)oxy)phenyl)amino)-6,7-dihydro-5H-pyrimido[5′,4′:4,5]thieno[2,3-c]azepin-8(9H)-yl)but-2-en-1-one] | < 0.1 µM | 0.1 to 1 µM | C (C: ≥ 10 and < 20) | C (C: ≥ 10 and < 20) | < 0.1 µM |
| C=CC(=O)N1CCc2[nH]c3ncnc(Nc4ccc(Oc5ccc6ncnn6c5)c(C)c4)c3c2C1 [Compound 102, 1-(4-((4-([1,2,4]triazolo[1,5-a]pyridin-6-yloxy)-3-methylphenyl)amino)-5,7,8,9-tetrahydro-6H-pyrido[3′,4′:4,5]pyrrolo[2,3-d]pyrimidin-6-yl)prop-2-en-1-one] | < 0.1 µM | 1 to 10 µM | C (C: ≥ 10 and < 20) | C (C: ≥ 10 and < 20) | < 0.1 µM |
| Cc1cc(Nc2ncnc3sc4c(c23)CN(C(=O)/C=C/CN(C)C)CC4)ccc1Oc1ccc2ncnn2c1 [Compound 103, (E)-1-(4-((4-([1,2,4]triazolo[1,5-a]pyridin-6-yloxy)-3-methylphenyl)amino)-7,8-dihydropyrido[3′,4′:4,5]thieno[2,3-d]pyrimidin-6(5H)-yl)-4-(dimethylamino)but-2-en-1-one] | 0.1 to 1 µM | 0.1 to 1 µM | B (B: ≥ 20 and < 100) | B (B: ≥ 20 and < 100) | < 0.1 µM |
| Cc1cc(Nc2ncnc3sc4c(c23)CCN(C(=O)/C=C/CN(C)C)C4)ccc1Oc1ccc2nonc2c1 [Compound 104, (E)-1-(4-((4-(Benzo[c][1,2,5]oxadiazol-5-yloxy)-3-methylphenyl)amino)-5,6-dihydropyrido[4′,3′:4,5]thieno[2,3-d]pyrimidin-7(8H)-yl)-4-(dimethylamino)but-2-en-1-one] | < 0.1 µM | < 0.1 µM | D (D: ≥ 5 and < 10) | D (D: ≥ 5 and < 10) | < 0.1 µM |

Continued, values first:

| IC50 (HER2 WT) | EC50 (EGFR) | Selectivity A431 EC50/BT474 EC50 (EGFR) | Selectivity A431 EC50/HEKYVMA EC50 (EGFR) | IC50 (HER2YVMA) | SMILES |
| --- | --- | --- | --- | --- | --- |
| < 0.1 µM | < 0.1 µM | B (B: ≥ 20 and < 100) | D (D: ≥ 5 and < 10) | < 0.1 µM | O=C(/C=C/CN1CC2CC1CO2)N1CCc2c(sc3ncnc(Nc4ccc(Oc5ccc6ncnn6c5)c(Cl)c4)c23)C1 (centres unmarked) [Compound 87] |
| < 0.1 µM | < 0.1 µM | C (C: ≥ 10 and < 20) | C (C: ≥ 10 and < 20) | < 0.1 µM | O=C(/C=C/CN1CC2CCC(C2)C1)N1CCc2c(sc3ncnc(Nc4ccc(Oc5ccc6ncnn6c5)c(Cl)c4)c23)C1 [Compound 88] |
| < 0.1 µM | < 0.1 µM | C (C: ≥ 10 and < 20) | D (D: ≥ 5 and < 10) | < 0.1 µM | CN(C/C=C/C(=O)N1CCc2c(sc3ncnc(Nc4ccc(Oc5ccc6ncnn6c5)c(Cl)c4)c23)C1)C(C)(C)C [Compound 91] |
| < 0.1 µM | < 0.1 µM | C (C: ≥ 10 and < 20) | C (C: ≥ 10 and < 20) | < 0.1 µM | O=C(/C=C/CN1CC2C(CO)C2C1)N1CCc2c(sc3ncnc(Nc4ccc(Oc5ccc6ncnn6c5)c(Cl)c4)c23)C1 (centres unmarked) [Compound 92] |
| < 0.1 µM | 0.1 to 1 µM | C (C: ≥ 10 and < 20) | E (E: >1 and < 5) | < 0.1 µM | C=CC(=O)N1CCc2[nH]c3ncnc(Nc4ccc(Oc5ccc(C)nc5)c(C)c4)c3c2C1 [Compound 94, 1-(4-((3-methyl-4-((6-methylpyridin-3-yl)oxy)phenyl)amino)-7,8-dihydro-5H-pyrido[3′,4′:4,5]pyrrolo[2,3-d]pyrimidin-6(9H)-yl)prop-2-en-1-one] |
| < 0.1 µM | 0.1 to 1 µM | D (D: ≥ 5 and < 10) | C (C: ≥ 10 and < 20) | < 0.1 µM | COc1ccc(Oc2ccc(Nc3ncnc4sc5c(c34)CCN(C(=O)/C=C/CN(C)C)C5)cc2C)cn1 [Compound 95, (E)-4-(Dimethylamino)-1-(4-((4-((6-methoxypyridin-3-yl)oxy)-3-methylphenyl)amino)-5,6-dihydropyrido[4′,3′:4,5]thieno[2,3-d]pyrimidin-7(8H)-yl)but-2-en-1-one] |
| < 0.1 µM | 0.1 to 1 µM | C (C: ≥ 10 and < 20) | D (D: ≥ 5 and < 10) | < 0.1 µM | CCOC/C=C/C(=O)N1CCc2c(sc3ncnc(Nc4ccc(Oc5ccc(C)nc5)c(C)c4)c23)C1 [Compound 96, (E)-4-ethoxy-1-(4-((3-methyl-4-((6-methylpyridin-3-yl)oxy)phenyl)amino)-5,8-dihydropyrido[4′,3′:4,5]thieno[2,3-d]pyrimidin-7(6H)-yl)but-2-en-1-one] |
| < 0.1 µM | 0.1 to 1 µM | B (B: ≥ 20 and < 100) | E (E: >1 and < 5) | < 0.1 µM | Cc1ccc(Oc2ccc(Nc3ncnc4[nH]c5c(c34)CN(C(=O)/C=C/CN(C)C)CC5)cc2C)cn1 [Compound 97, (E)-4-(dimethylamino)-1-(4-((3-methyl-4-((6-methylpyridin-3-yl)oxy)phenyl)amino)-5,7,8,9-tetrahydro-6H-pyrido[3′,4′:4,5]pyrrolo[2,3-d]pyrimidin-6-yl)but-2-en-1-one] |
| < 0.1 µM | 0.1 to 1 µM | C (C: ≥ 10 and < 20) | D (D: ≥ 5 and < 10) | < 0.1 µM | Cc1ccc(Oc2ccc(Nc3ncnc4sc5c(c34)C(C)CN(C(=O)/C=C/CN(C)C)C5)cc2C)cn1 (centres unmarked) [Compound 98, (E)-4-(dimethylamino)-1-(5-methyl-4-((3-methyl-4-((6-methylpyridin-3-yl)oxy)phenyl)amino)-5,8-dihydropyrido[4′,3′:4,5]thieno[2,3-d]pyrimidin-7(6H)-yl)but-2-en-1-one] |
